Test results from patent US20230278972A1, “SUBSTITUTED HALOALKYL SULFONANILIDE HERBICIDES” (FMC Corporation, priority 2020, published 2023).

Tests used:
Assay type in all cases: in vivo
[1] = test system: goosegrass (Eleusine indica); experiment: Test A1 preemergence, goosegrass
How it was run: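 Both timings started from seed in a loam-sand blend. Preemergence pots got a directed soil application immediately; postemergence pots were sprayed when seedlings had one or two leaves and stood 2–10 cm. Each compound was prepared in a non-phytotoxic solvent plus surfactant.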

[2] = test system: blackgrass (Alopecurus myosuroides); experiment: Test A1 postemergence, blackgrass; conditions: 0 to 100 scale (0 no effect, 100 complete control); for Plant response rating, Blackgrass: Postemergence; for Blackgrass plant response rating: postemergence
How it was run: (§1)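 Plants were grown in a loam soil/sand blend, with test chemicals formulated in a non-phytotoxic solvent mixture containing surfactant. Preemergence treatment (corn) was a directed soil spray at planting. Postemergence treatment was applied to plants 2 to 10 cm tall at the one- to two-leaf stage.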

kochia (Bassia scoparia) = experiment: Test A1 postemergence, kochia; conditions: for Kochia plant response rating: postemergence; for Plant response rating, Kochia: Postemergence
How it was run: as §1

soybean (Glycine max) = experiment: Test A1 postemergence, soybean; conditions: for Soybean plant response rating: postemergence; for Plant response rating, Soybean: Postemergence
How it was run: as §1

[3] = test system: galium (catchweed bedstraw, Galium aparine); experiment: Test A1 postemergence, galium; conditions: for Galium plant response rating: postemergence; for Plant response rating, Galium: Postemergence
How it was run: as §1

rice (Oryza sativa) = experiment: Test B1 flooded paddy test, rice; conditions: 250 g ai/ha, Flood, applied to paddy water, 2-leaf stage, visually evaluated after 10 to 14 days
Description: A dash (-) response means no test result.

[4] = 31 g ai/ha, 0 to 100 scale (0 no effect, 100 complete control)
[5] = 125 g ai/ha, 0 to 100 scale, 0 no effect, 100 complete control
[6] = 31 g ai/ha, 0 to 100 scale (0 no effect, 100 complete control), 10 days
[7] = 125 g ai/ha, 0 to 100 scale (0 no effect, 100 complete control), 10 days

SMILES | Plant response rating, Goosegrass [1, 4] | Plant response rating, Goosegrass [1, 5] | Plant response rating, Blackgrass ([2]; 31 g ai/ha, 10 days) | Plant response rating, Blackgrass ([2]; 125 g ai/ha) | Kochia plant response rating (kochia (Bassia scoparia); [4]) | Plant response rating, Kochia (kochia (Bassia scoparia); 125 g ai/ha, 0 to 100 scale) | Soybean plant response rating (soybean (Glycine max); [4]) | Plant response rating, Soybean (soybean (Glycine max); 125 g ai/ha, 0 to 100 scale) | Galium plant response rating [3, 4] | Plant response rating, Galium ([3]; 125 g ai/ha, 0 to 100 scale) | Plant response rating, Rice (0 to 100 scale, 0 is no effect, 100 is complete control) (rice (Oryza sativa)) | Plant response rating, Kochia (kochia (Bassia scoparia); [6]) | Plant response rating, Soybean (soybean (Glycine max); [6]) | Plant response rating, Galium [3, 6] | Blackgrass plant response rating ([2]; 31 g ai/ha) | Plant response rating, Blackgrass ([2]; 125 g ai/ha, 10 days) | Plant response rating, Kochia (kochia (Bassia scoparia); [7]) | Plant response rating, Soybean (soybean (Glycine max); [7]) | Plant response rating, Galium [3, 7]
Cc1c(C(=O)N2C[C@@H](C)O[C@H](C)C2)cc(N(COC(=O)C(C)(C)C)S(=O)(=O)C(F)(F)F)c(C)c1C (relative stereo) [Compound 373] | 30 | 100 | 0 | 10 | 0 | 10 | 50 | 70 | 50 | 70 | 20 | – | – | – | – | – | – | – | –
CCOC(=O)N(c1cc(C(=O)N2C[C@@H](C)O[C@H](C)C2)c(C)c(C)c1C)S(=O)(=O)C(F)(F)F (relative stereo) [Compound 374] | 60 | 100 | 0 | 10 | 0 | 10 | 50 | 90 | 60 | 80 | 0 | – | – | – | – | – | – | – | –
Cc1c(NS(=O)(=O)C(F)(F)F)cc(C(=O)N2CCSCC2)c(C)c1C [Compound 283] | 30 | 60 | 0 | 10 | – | 60 | – | 60 | – | 70 | 0 | 20 | 40 | 50 | – | – | – | – | –
Cc1c(C(=O)N2CCSCC2)cc(N(COC(=O)C(C)(C)C)S(=O)(=O)C(F)(F)F)c(C)c1C [Compound 285] | 0 | 70 | 0 | 30 | – | 90 | – | 60 | – | 80 | 0 | 10 | 30 | 40 | – | – | – | – | –
CCOC(=O)N(c1cc(C(=O)N2CCSCC2)c(C)c(C)c1C)S(=O)(=O)C(F)(F)F [Compound 286] | 30 | 90 | 0 | 40 | – | 50 | – | 60 | – | 80 | 0 | 20 | 50 | 50 | – | – | – | – | –
COC1CCN(C(=O)c2cc(N(COC(=O)C(C)(C)C)S(=O)(=O)C(F)(F)F)c(C)c(C)c2C)CC1 [Compound 370] | 30 | 90 | 0 | 0 | 0 | 20 | 50 | 80 | 90 | 100 | 25 | – | – | – | – | – | – | – | –
C#CCN(C)C(=O)c1cc(N(COC(=O)C(C)(C)C)S(=O)(=O)C(F)(F)F)c(C)c(C)c1C [Compound 371] | 0 | 90 | 0 | 10 | 40 | 70 | 60 | 90 | 70 | 100 | 10 | – | – | – | – | – | – | – | –
Cc1cc(C)c(C2=NOC3OCCCC23)cc1NS(=O)(=O)C(F)(F)F (stereo not drawn) [Compound 372] | 90 | 100 | 0 | 30 | 0 | 0 | 30 | 60 | 60 | 80 | 10 | – | – | – | – | – | – | – | –
Cc1ccc(C2=NOC3CCCC23)cc1NS(=O)(=O)C(F)(F)F (stereo not drawn) [Compound 377] | 0 | 20 | 0 | 0 | 20 | 30 | 0 | 30 | 0 | 0 | 0 | – | – | – | – | – | – | – | –
CCOC(=O)N(c1cc(C2=NOC3CCCC23)c(CC)cc1C)S(=O)(=O)C(F)(F)F (stereo not drawn) [Compound 379] | 20 | 90 | 0 | 30 | 0 | 40 | 0 | 20 | 0 | 40 | 0 | – | – | – | – | – | – | – | –
Cc1c(NS(=O)(=O)C(F)(F)F)cc(C2=NOC3(CCCC3)C2)c(C)c1C [Compound 380] | 50 | 100 | – | – | 30 | – | 50 | – | 50 | – | 10 | – | – | – | 20 | 20 | 50 | 60 | 60
Cc1c(C2=NOC3(CCCC3)C2)cc(N(COC(=O)C(C)(C)C)S(=O)(=O)C(F)(F)F)c(C)c1C [Compound 382] | 0 | 30 | – | – | 0 | – | 40 | – | 0 | – | 10 | – | – | – | 0 | 0 | 30 | 50 | 50
Cc1cc(C)c(N(COC(=O)C(C)(C)C)S(=O)(=O)C(F)(F)F)cc1C1=NOC(C(C)C)C1 (stereo not drawn) [Compound 383] | 0 | 80 | – | – | 20 | – | 30 | – | 0 | – | 10 | – | – | – | 0 | 50 | 20 | 50 | 60
Cc1cc(C)c(N2CC3(CCCCC3)CC2=O)cc1NS(=O)(=O)C(F)(F)F [Compound 392] | 40 | 100 | – | – | 10 | – | 50 | – | 50 | – | 0 | – | – | – | 0 | 0 | 20 | 60 | 80
Cc1cc(Cl)c(NS(=O)(=O)C(F)(F)F)cc1N1CCC2(CCCCC2)C1=O [Compound 393] | 100 | 100 | – | – | 20 | – | 50 | – | 100 | – | 0 | – | – | – | – | – | 60 | 60 | 100
COC1CCC2(CC1)CCN(c1cc(NS(=O)(=O)C(F)(F)F)c(C)cc1C)C2=O (stereo not drawn) [Compound 398] | 100 | 100 | – | – | 20 | – | 30 | – | 80 | – | 30 | – | – | – | 0 | 30 | 70 | 60 | 90
Cc1cc(C)c(N(S(=O)(=O)C(F)(F)F)S(=O)(=O)C(F)(F)F)cc1N1CCC2(CCC(C(F)(F)F)CC2)C1=O (stereo not drawn) [Compound 399] | 90 | 90 | – | – | 30 | – | 60 | – | 50 | – | 0 | – | – | – | 40 | 90 | 70 | 100 | 90
Cc1cc(C)c(N2CCC3(CCC(C(F)(F)F)CC3)C2=O)cc1NS(=O)(=O)C(F)(F)F (stereo not drawn) [Compound 400] | 90 | 100 | – | – | 20 | – | 50 | – | 80 | – | 25 | – | – | – | 0 | 30 | 70 | 60 | 100
Cc1cc(C)c(N(COC(=O)C(C)(C)C)S(=O)(=O)C(F)(F)F)cc1N1CCC2(CCC(C)CC2)C1=O (stereo not drawn) [Compound 401] | 0 | 30 | – | – | 10 | – | 60 | – | 50 | – | 45 | – | – | – | 0 | 30 | 30 | 70 | 80
